Each structure is given as a SMILES string. Read-outs that look alike come from different tables or passages of the source.

One assay relates to leukemia P-388. The experiment in a line: Anti-tumor activity against leukemia P-388. The settings on record: for ILS %: i.p. once, 33 days. The assay is classed as in vivo, mouse (CDF1). The procedure:
(§1) Ascites was sampled from the abdominal cavity of tumor-bearing mice (DBA/2) 7 days after transplantation of P-388 ascitic tumor. The number of the P-388 cells in the ascites was counted. A suspension of the tumor cells of 5×10^6 /ml was prepared using sterilized physiological saline, and 0.2 ml of the suspension (containing 1×10^6 cells) was intraperitoneally transplanted to CDF1 mice weighing 20 to 25 g. Twenty-four hours after the transplantation of the tumor, a test compound was intraperitoneally administered once to groups of the CDF1 mice, each group consisting of 6 mice. […] The effect of the compound was evaluated by a ratio of a mean survival days of the group treated with the compound to a mean survival days of the control group (untreated group) after 33 days of observation (Increased Life Span, ILS %).

Assay [1] concerns tumor. The experiment in a line: Anti-tumor activity of Compound A stated in words (GB 2121796A / inventors' own observation). The settings on record: noted by the present inventors.
The subject of assay [2] is P-388 leukemia resistant to mitomycin C. The experiment in a line: Anti-tumor activity against P-388 leukemia resistant to mitomycin C. It counts as in vivo, mouse (CDF1). The settings on record: for ILS %: i.p. once. The procedure:
as §1

Assay [3] relates to tumor. The settings on record: reported in GB 2121796A; cited from earlier work.

Take `CO[C@@]12[C@H](COC(N)=O)C3=C(C(=O)C(C)=C(N=CN(C)C)C3=O)N1C[C@@H]1N[C@@H]12` [Compound A, 7-N-Dimethylaminomethylenemitomycin C]: the “maximum increased life span” value in the assay on leukemia P-388 (P-388, Table 3, maximum over doses) is on record as 75%; in assay [2] (P-388 resistant to mitomycin C, Table 4, maximum over doses), 73%. Further, the ILS % amounted to 15% with leukemia P-388 (dose 0.0625 mg/kg); 48% in the assay with leukemia P-388 (dose 0.125 mg/kg); 45% in the assay with leukemia P-388 (dose 0.25 mg/kg); 63% in the assay on leukemia P-388 (dose 0.5 mg/kg); 68% in the assay with leukemia P-388 (dose 1.0 mg/kg); 75% in the assay with leukemia P-388 (dose 2.0 mg/kg). Also, the ILS % in the assay on leukemia P-388 (dose 4.0 mg/kg) is recorded as 20%; in assay [2] (dose 0.25 mg/kg) it was 47%; in assay [2] (dose 0.5 mg/kg) it was 73%; in assay [2] (dose 1.0 mg/kg), 68%; in assay [2] (dose 2.0 mg/kg), 47%; in assay [2] (dose 4.0 mg/kg), -41%. Further, the ILS % in assay [2] (dose 6.0 mg/kg) is -47%. Moreover, the anti-tumor activity entry in the assay on tumor [1] was “excellent anti-tumor activity”; with tumor [3], “particularly excellent anti-tumor activity”.

Values taken from patent US4748251A, “7-n-aminomethylenemitomycin derivative” (priority 1985, dated 1988).
